Four compounds from patent publication US10039780B2 (Chiesi Farmaceutici S.p.A., priority 2015, dated 2018) can be followed below.

Holding throughout (assay type): physicochemical
Data set [1] in a line: Hygroscopicity by dynamic vapor adsorption analysis.
Data set [2] can be described thus: Long term stability at 25° C. and 60% relative humidity (HPLC, ion chromatography, Karl-Fischer). The settings on record: for Impurity A concentration / Impurity B concentration / Total impurities concentration / Moisture concentration / Impurity E concentration / Impurity C concentration: 25° C./60% relative humidity; for Moisture concentration: Karl-Fischer; for Impurity E concentration: ion chromatography; for storage stability, conclusion in words: storage at 25° C./60% relative humidity. The protocol:
Their pH was adjusted to 8.5 prior to lyophilization and they were stored in glass vials stoppered with a stopper specifically selected for its ability to retain as little moisture as possible after autoclaving and after drying for 8 h at 105° C. […] Cangrelor lots API A-B are cangrelor tetrasodium. They were stored in double polyethylene bags in […]. […] In addition their moisture content was determined by Karl-Fischer titration.

The nature of data set [3]: Solution stability of cangrelor in purified water, reverse phase HPLC. The settings on record: 1 mg/mL in purified water.
The nature of data set [4]: Accelerated pH stability of cangrelor in buffer solutions, reverse phase HPLC. Conditions: 1 mg/mL, 7 days at 40° C. protected from light. The protocol:
The extent of degradation was determined using a reverse phase HPLC method.

The nature of data set [5]: Photostability of solid cangrelor in quartz cuvettes, reverse phase HPLC. The protocol: Namely, solid cangrelor was placed in two quartz cuvettes. Both cuvettes were placed in a chamber and exposed to a combination of […] (near UV) and […] (visible) light for a total of 7.8×10^6 LUX hours and 221 watt hours/m^2, but one cuvette was wrapped in aluminum foil. After 17 days, the levels of impurities in the sample were determined by reverse phase HPLC.

[6] abbreviates: after 8 days, 4° C. and ambient humidity.
Where [7] appears, read: after 8 days, 25° C. and 60% relative humidity.
Setting [8] is: after 8 days, 40° C. and ambient humidity.

Turning to `CSCCNc1nc(SCCC(F)(F)F)nc2c1ncn2[C@@H]1O[C@H](COP(=O)(O)OP(=O)(O)C(Cl)(Cl)P(=O)(O)O)[C@@H](O)[C@H]1O` [cangrelor tetrasodium], the hygroscopicity result in data set [1] is listed as “hygroscopic”.

Turning to `CSCCNc1nc(SCCC(F)(F)F)nc2c1ncn2[C@@H]1O[C@H](COP(=O)([O-])OP(=O)([O-])C(Cl)(Cl)P(=O)([O-])[O-])[C@@H](O)[C@H]1O.[Na+].[Na+].[Na+].[Na+]` [API A], in data set [2] (1 month), the “Impurity A concentration” value came out at 0.28 % w/w, the “Impurity B concentration” value amounted to 0.22 % w/w, the Total impurities concentration came out at 1.10 % w/w and the Moisture concentration is given as 7.7 % w/w. Besides, in data set [2] (1 month), the “Impurity E concentration” value was determined as 0.08 % w/w. Further, in data set [2] (3 months), the “Impurity A concentration” value stood at 0.47 % w/w, the “Impurity B concentration” value came out at 0.33 % w/w, the Total impurities concentration was 1.40 % w/w and the Moisture concentration was 11.3 % w/w. Besides, in data set [2] (3 months), the “Impurity E concentration” value is 0.11 % w/w. In data set [2] (Initial), the “Impurity A concentration” value was found to be 0.15 % w/w, the “Impurity B concentration” value came out at 0.11 % w/w, the Total impurities concentration is reported as 0.70 % w/w and the Moisture concentration was determined as 4.3 % w/w. In addition, the “Impurity E concentration” value in data set [2] (Initial) stood at 0.06 % w/w. Also, in data set [2], the “storage stability, conclusion in words” value is “display significant degradation over time”.

On to `CSCCNc1nc(SCCC(F)(F)F)nc2c1ncn2[C@@H]1O[C@H](COP(=O)([O-])OP(=O)([O-])C(Cl)(Cl)P(=O)([O-])[O-])[C@@H](O)[C@H]1O.[Na+].[Na+].[Na+].[Na+]` [API B], for which, in data set [2] (1 month), the “Impurity A concentration” value worked out at 0.36 % w/w, the “Impurity B concentration” value is reported as 0.19 % w/w, the “Impurity C concentration” value was determined as 0.06 % w/w and the Total impurities concentration was 1.10 % w/w. The same compound returned a Moisture concentration in data set [2] (1 month) of 6.9 % w/w. For the same compound, in data set [2] (3 months), the “Impurity A concentration” value came out at 0.51 % w/w, the “Impurity B concentration” value stood at 0.32 % w/w, the “Impurity C concentration” value came to 0.08 % w/w and the Total impurities concentration is 1.50 % w/w. The same compound had a Moisture concentration in data set [2] (3 months) of 9.9 % w/w. In addition, in data set [2] (6 months), the “Impurity A concentration” value stood at 0.70 % w/w, the “Impurity B concentration” value was determined as 0.48 % w/w, the “Impurity C concentration” value was determined as 0.19 % w/w and the Total impurities concentration is recorded as 1.90 % w/w. Besides, the Moisture concentration in data set [2] (6 months) was found to be 11.6 % w/w. In addition, in data set [2] (Initial), the “Impurity A concentration” value stood at 0.31 % w/w, the “Impurity B concentration” value was 0.11 % w/w, the “Impurity C concentration” value is below 0.05 % w/w and the Total impurities concentration is listed as 0.80 % w/w. In data set [2] (Initial), the Moisture concentration was 7.0 % w/w. Moreover, the “storage stability, conclusion in words” value in data set [2] is on record as “display significant degradation over time”.

Consider `CSCCNc1nc(SCCC(F)(F)F)nc2c1ncn2[C@@H]1O[C@H](COP(=O)(O)OP(=O)(O)C(Cl)(Cl)P(=O)(O)O)[C@@H](O)[C@H]1O` [Cangrelor, [dichloro-[[[(2R,3S,4R,5R)-3,4-dihydroxy-5-[6-(2-methylsulfanylethylamino)-2-(3,3,3-trifluoropropylsulfanyl)purin-9-yl]oxolan-2-yl]methoxy-hydroxyphosphoryl]oxy-hydroxyphosphoryl]methyl]phosphonic acid], for which the Cangrelor measured level in data set [3] (Initial) came out at 98.23 % w/w; in data set [3] (setting [6]), 98.45 % w/w; in data set [3] (setting [7]), 96.94 % w/w; in data set [3] (setting [8]), 90.46 % w/w. In addition, the “Impurity A measured level” value in data set [3] (Initial) amounted to 0.16 % w/w; in data set [3] (setting [6]), 0.22 % w/w; in data set [3] (setting [7]) it was 1.58 % w/w; in data set [3] (setting [8]), 7.50 % w/w. Moreover, the “Impurity C measured level” value is on record as 0.28 % w/w in data set [3] (Initial), 0.26 % w/w in data set [3] (setting [6]), 0.27 % w/w in data set [3] (setting [7]) and 0.37 % w/w in data set [3] (setting [8]). Moreover, the “Total Impurities measured level” value in data set [3] (Initial) is given as 1.76 % w/w; in data set [3] (setting [6]), 1.54 % w/w; in data set [3] (setting [7]) it was 3.06 % w/w; in data set [3] (setting [8]), 9.56 % w/w. The “Impurity A” value in data set [4] (pH 1.0, 0.1M HCl) worked out at 28.51 % w/w; in data set [4] (pH 3.0, Phosphate) it was 28.69 % w/w; in data set [4] (pH 5.0, Phosphate), 20.70 % w/w; in data set [4] (pH 7.0, Phosphate), 14.31 % w/w; in data set [4] (pH 9.0, Phosphate) it was 3.25 % w/w; in data set [4] (pH 11.0, Phosphate), 2.61 % w/w. In addition, in data set [4] (pH 12.0, 0.1M NaOH), the “Impurity A” value was 2.42 % w/w. Further, the “Impurity D” value was 68.12 % w/w in data set [4] (pH 1.0, 0.1M HCl) and 0.81 % w/w in data set [4] (pH 3.0, Phosphate). In addition, the “Total Impurities” value in data set [4] (pH 1.0, 0.1M HCl) came out at 97.28 % w/w; in data set [4] (pH 3.0, Phosphate) it was 31.48 % w/w; in data set [4] (pH 5.0, Phosphate), 22.16 % w/w; in data set [4] (pH 7.0, Phosphate), 15.71 % w/w; in data set [4] (pH 9.0, Phosphate), 4.90 % w/w; in data set [4] (pH 11.0, Phosphate) it was 4.28 % w/w. The “Total Impurities” value in data set [4] (pH 12.0, 0.1M NaOH) was 4.39 % w/w. The “total level of impurities” value in data set [5] (solid cangrelor, initially) is recorded as 0.8 % (w/w); in data set [5] (solid, exposed sample, near UV and visible light, 7.8×10^6 LUX hours and 221 watt hours/m^2, after 17 days), 4.3 % (w/w); in data set [5] (solid, shielded sample (cuvette wrapped in aluminum foil), after 17 days), 1.2 % (w/w).
